According to ChEMBL document CHEMBL1140477 (Bioorg Med Chem, 2007):

Each compound was assayed against T1, 3-hydroxy-3-methylglutaryl-coenzyme A reductase (Rattus norvegicus, UniProt P51639) (assay: Inhibition of Holtzman-Sprague-Dawley rat liver HMG CoA reductase after 30 mins).
T1 sequence (P51639 whole entry): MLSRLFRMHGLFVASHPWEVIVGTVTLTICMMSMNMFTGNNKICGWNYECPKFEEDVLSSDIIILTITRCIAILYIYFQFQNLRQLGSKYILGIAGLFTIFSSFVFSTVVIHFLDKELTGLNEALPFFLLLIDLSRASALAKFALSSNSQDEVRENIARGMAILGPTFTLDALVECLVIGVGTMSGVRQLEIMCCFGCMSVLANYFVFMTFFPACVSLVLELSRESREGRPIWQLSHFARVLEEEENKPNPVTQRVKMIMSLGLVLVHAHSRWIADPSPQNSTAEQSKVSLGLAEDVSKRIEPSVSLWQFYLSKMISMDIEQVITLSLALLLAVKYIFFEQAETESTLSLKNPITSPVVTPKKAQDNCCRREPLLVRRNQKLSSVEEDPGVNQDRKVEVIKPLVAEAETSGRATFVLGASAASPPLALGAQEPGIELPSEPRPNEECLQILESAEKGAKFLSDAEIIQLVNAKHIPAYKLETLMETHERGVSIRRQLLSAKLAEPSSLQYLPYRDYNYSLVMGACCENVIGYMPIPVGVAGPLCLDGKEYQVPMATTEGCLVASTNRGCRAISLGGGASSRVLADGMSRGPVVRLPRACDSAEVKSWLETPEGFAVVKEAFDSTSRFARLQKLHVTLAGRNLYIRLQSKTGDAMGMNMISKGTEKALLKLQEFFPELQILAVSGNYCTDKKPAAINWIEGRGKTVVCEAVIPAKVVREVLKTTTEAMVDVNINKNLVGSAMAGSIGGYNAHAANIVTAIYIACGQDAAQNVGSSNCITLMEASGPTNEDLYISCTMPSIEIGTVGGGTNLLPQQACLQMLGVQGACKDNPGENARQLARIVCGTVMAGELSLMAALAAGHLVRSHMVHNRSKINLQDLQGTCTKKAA

Question: Which IC50 does the source give for `O=C1C[C@H](O)C[C@@H](/C=C/c2cnc3cc(Sc4ccccc4)c(Sc4ccccc4)cc3c2Sc2ccccc2)O1` here?
Answer: The IC50 was 32.5 µM.

Question: `COc1cccc(Sc2cc3ncc(/C=C/[C@@H]4C[C@@H](O)CC(=O)O4)c(Sc4cccc(OC)c4)c3cc2Sc2cccc(OC)c2)c1` was tested. Which IC50 did it give?
Answer: The IC50 was 15.4 µM.

Question: Which IC50 does the source give for `CC(C)c1ccc(Sc2cc3c(Sc4ccc(C(C)C)cc4)c(/C=C/[C@@H]4C[C@@H](O)CC(=O)O4)cnc3c(Sc3ccc(C(C)C)cc3)c2Sc2ccc(C(C)C)cc2)cc1` here?
Answer: Its IC50 is 4.35 µM.

Question: With `CC(C)c1ccc(Sc2c(/C=C/[C@@H]3C[C@@H](O)CC(=O)O3)cnc3ccccc23)cc1` as the compound, how does the IC50 read?
Answer: Its IC50 is 12.7 µM.

Question: `CC(C)c1ccc(Sc2c(/C=C/[C@@H]3C[C@@H](O)CC(=O)O3)cnc3cc(Cl)c(F)cc23)cc1` was tested. Which IC50 did it give?
Answer: Its IC50 is 22.1 µM.

Question: How did the IC50 turn out when `O=C1C[C@H](O)C[C@@H](/C=C/c2cnc3c(F)c(F)c(F)cc3c2Sc2ccccc2)O1` was run?
Answer: The IC50 was 10.7 µM.

Question: With `O=C1C[C@H](O)C[C@@H](/C=C/c2cnc3cc(Sc4ccccc4)c(F)cc3c2Sc2ccccc2)O1` as the compound, how does the IC50 read?
Answer: The IC50 was 4.41 µM.

Question: For `O=C1C[C@H](O)C[C@@H](/C=C/c2cnc3cc(Sc4ccc(F)cc4)c(F)cc3c2Sc2ccc(F)cc2)O1`, which IC50 is on record?
Answer: The IC50 was 38.9 µM.

Question: `CC(C)c1ccc(Sc2cc3ncc(/C=C/[C@@H]4C[C@@H](O)CC(=O)O4)c(Sc4ccc(C(C)C)cc4)c3cc2Sc2ccc(C(C)C)cc2)cc1` was tested. Which IC50 did it give?
Answer: The IC50 was 14.2 µM.

Question: `COc1cccc(Sc2c(F)cc3c(Sc4cccc(OC)c4)c(/C=C/[C@@H]4C[C@@H](O)CC(=O)O4)cnc3c2Sc2cccc(OC)c2)c1` was tested. Which IC50 did it give?
Answer: Its IC50 is 74.6 µM.

Question: With `CC(C)c1ccc(Sc2ccc3c(Sc4ccc(C(C)C)cc4)c(/C=C/[C@@H]4C[C@@H](O)CC(=O)O4)cnc3c2)cc1` as the compound, how does the IC50 read?
Answer: The IC50 was 15.8 µM.

Question: `COc1cccc(Sc2c(F)cc3c(Sc4cccc(OC)c4)c(/C=C/[C@@H]4C[C@@H](O)CC(=O)O4)cnc3c2F)c1` was tested. Which IC50 did it give?
Answer: The IC50 was 49.7 µM.

Question: How did the IC50 turn out when `O=C1C[C@H](O)C[C@@H](/C=C/c2cnc3ccccc3c2Sc2ccc(F)cc2)O1` was run?
Answer: The IC50 was 18.6 µM.

Question: How did the IC50 turn out when `O=C(O)C[C@H](O)C[C@H](O)/C=C/c1c(C2CC2)nc2ccccc2c1-c1ccc(F)cc1` [PITAVASTATIN CALCIUM] was run?
Answer: The IC50 was 10.6 µM.
